US20160143946A1, “COMBINATION THERAPIES FOR TREATING CANCER” (priority 2014, published 2016)
pIC50: −log10 of the molar value. Like-named read-outs stand apart in the source and are kept apart here.

Tests used:
Type in all cases: cell-based, human
[1] = tested on: HT1376 bladder cancer cell line; experiment: Cell viability by MTT incorporation, HT1376 bladder cancer cells; conditions: read-out: HT1376 IC50
Protocol: (§1) SW780 and HT1376 bladder cancer cell lines stained with anti-CD44 and anti-CD49f were examined by flow cytometry. Cells were treated with cisplatin, AR-42, sodium butyrate, valproic acid, and trichostatin A at concentrations indicated for 24 hours and cell viability was determined by MTT incorporation. The table denotes IC50s for SW780 and HT1376 cells to listed agents.
(§2) Bladder Cancer Cell Lines—SW780 and HT1376 cell lines were grown in RPMI with 10% fetal bovine serum at 37° C. with 5% CO2 and treated with cisplatin, AR-42, sodium butyrate, trichostatin A, and valproic acid at concentrations indicated.
(§3) SW780 and HT1376 cell lines were treated with cisplatin, AR-42, sodium butyrate, valproic acid, and trichostatin A at various concentrations and cell viability was determined by MTT incorporation (FIG. 1).

SW780 cells = experiment: Cisplatin / HDAC inhibitor combination, MTT survival with isobologram combination index, SW780; conditions: administered at their IC90s; SW780 and HT1376 cells (Table 3)
Protocol: Isobolograms were used to calculate combination indices to indicate synergy at IC50 and IC90, whereby CI<1 denotes synergy.
as §2
SW780 and HT1376 cells treated with cisplatin, AR-42, a combination cisplatin and AR-42 at a 5:1 ratio, a combination cisplatin and AR-42 in a 20:1 molar ratio, as assessed by MTT incorporation (FIG. 2).

[2] = tested on: SW780 bladder cancer cell line; experiment: Cell viability by MTT incorporation, SW780 bladder cancer cells; conditions: read-out: SW780 IC50
Protocol: as §1, §2, §3

[3] = Homo sapiens, HT-1376, HT1376 cells, 24 hours treatment, MTT incorporation
[4] = Homo sapiens, SW780 cells, 24 hours treatment, MTT incorporation
[5] = HT1376 cells, 24 hours treatment, MTT incorporation
[6] = SW780 cells, 24 hours treatment, MTT incorporation

pIC50 [1, 3] | pIC50 [2, 4] | SMILES | synergy with cisplatin (SW780 cells) | pIC50 [1, 5] | pIC50 [2, 6] | further results
5.85 | 5.85 | CC(C)[C@H](C(=O)Nc1ccc(C(=O)NO)cc1)c1ccccc1 [AR-42] | synergy |  |  | 
 |  | N.N.[Cl][Pt][Cl] [Cisplatin] |  | 4.52 | 5.07 | 
 |  | CCCC(=O)[O-].[Na+] [Sodium Butyrate] | synergy |  |  | pIC50 ([1]; Homo sapiens, HT-1376, 24 h): 2.07; pIC50 ([2]; Homo sapiens, SW780, 24 h): 2.42
 |  | CC(/C=C/C(=O)NO)=C\[C@@H](C)C(=O)c1ccc(N(C)C)cc1 [Trichostatin A] |  | 6.92 | 6.60 | 
2.13 | 2.22 | CCCC(CCC)C(=O)O [Valproic Acid] |  |  |  | 
